Consider two compounds from patent US20250001009A1, “THERAPY FOR PROGRAMMED CELL DEATH IN A SUBJECT TRANSPLANTED WITH A DONOR LIVER CARRYING THE PNPLA3 RS738409:G VARIANT” (priority 2021, published 2025).

Structures are written as SMILES. “Also recorded” adds a separate entry of the source.

In data set [1] the test system is donor hepatocytes positive for the PNPLA3 rs738409:G variant. Put plainly: Cell viability / survival (Alamar Blue) of primary human hepatocytes. The class given is cell-based. The protocol: To evaluate the protective effects of deferoxamine, primary human hepatocytes were treated with 100 μM deferoxamine (DFO, Sigma-Aldrich, Saint-Louis, MO) for 24 hours in suspension. To evaluate the protective effects of GSH, primary human hepatocytes on collagen-coated plates were treated with 10 μM reduced L-glutathione (GSH, G4251, Sigma-Aldrich, Saint-Louis, MO) for 48 hours. Cell Viability Measurements: Cell viability was assessed in 96-well format using Alamar Blue (Invitrogen, Carlsbad, CA) absorbance (570 nm/600 nm) measured on a synergy HTX microplate reader (Biotek, Winooski, VT) 24 hours after ferroptosis induction. Post thaw viability of primary human hepatocytes was evaluated by Trypan blue dye exclusion counting using a Countess 3 automated cell counter (Invitrogen, Carlsbad, CA).
For orientation: The colour change of resazurin is a common sign of viable cells or microbes.

Data set [2] shares this test system. Description: Mitochondrial shape by transmission electron microscopy. Type of data set: cell-based, human. The note with it: in the presence of FINO2. As for the experimental part: To evaluate the protective effects of deferoxamine, primary human hepatocytes were treated with 100 μM deferoxamine (DFO, Sigma-Aldrich, Saint-Louis, MO) for 24 hours in suspension. To evaluate the protective effects of GSH, primary human hepatocytes on collagen-coated plates were treated with 10 μM reduced L-glutathione (GSH, G4251, Sigma-Aldrich, Saint-Louis, MO) for 48 hours. Transmission electron microscopy: Human hepatocytes in suspension were briefly centrifugated and washed with PBS solution. Samples were then fixed with 2.5% glutaraldehyde over night at 4° C. Fixed samples were processed by the Center for Biologic Imaging at the University of Pittsburgh, and treated with 1% osmium tetroxide and 1% potassium ferricyanide for 1 hour at room temperature. Samples were washed with PBS and dehydrated in a graded series of ethanol solution (30%, 50%, 70%, and 90% ethanol; 10 minutes each) and three 15-minute incubations in fresh 100% ethanol. Infiltration/embedding was done with three 1-hour incubations of epon. The last change of epon was removed and beam capsules filled with resin were inverted over relevant areas of the monolayers. […] Mitochondrial shape was evaluated as published previously using ImageJ (Merrill et al. in Techniques to Investigate Mitochondrial Function in Neurons, 123:31-48. Neuromethods. Springer New York, 2017).

Data set [3] shares this test system. Description: Lipid peroxidation (C11-BODIPY / MDA) in primary human hepatocytes. The class given is cell-based. As for the experimental part:
To evaluate the protective effects of deferoxamine, primary human hepatocytes were treated with 100 μM deferoxamine (DFO, Sigma-Aldrich, Saint-Louis, MO) for 24 hours in suspension. To evaluate the protective effects of GSH, primary human hepatocytes on collagen-coated plates were treated with 10 μM reduced L-glutathione (GSH, G4251, Sigma-Aldrich, Saint-Louis, MO) for 48 hours. Analysis of Lipid Peroxidation: A oxidation-sensitive probe C11-BODIPY (581/591) (Invitrogen, Carlsbad, CA) was used to evaluate lipid peroxidation under a fluorescence microscope. Untreated hepatocytes were prepared using a cytocentrifuge, incubated for 30 min with 10 μM C11-BODIPY, and washed with PBS. Cultured cells were incubated with 10 μM C11-BODIPY dissolved in culture media for 30 min at 37° C. and washed with PBS. The fluorescent signal was evaluated 3 hours after induction of ferroptosis. Malondialdehyde (MDA) is a natural biproduct of lipid peroxidation and MDA quantification is used as marker for lipid peroxidation. The MDA content in primary human hepatocytes was quantified using a commercially available kit from Sigma-Aldrich (Sigma-Aldrich, Saint-Louis, MO). Cryopreserved primary human hepatocytes were pelleted and analyzed directly or were cultured for 3 hours in suspension before the analysis. […] The MDA-TBA adduct was quantified using fluorometric detection (ex/em=430 nm/590 nm).

For `CC1(CCO)CC2(CCC(C(C)(C)C)CC2)OO1` (stereo not drawn) [FINO2, (5α,8α)-8-(1,1-dimethylethyl)-3-methyl-1,2-dioxaspiro[4.5]decane-3-ethanol, reference compound], in data set [1] (donor hepatocytes cultured in the presence of FINO2 (50 μM), 24 hours after ferroptosis induction), the donor hepatocyte survival result was “significant reduction in donor hepatocyte survival”. In addition, the mitochondrial shape result in data set [2] is reported as “changed from a rod shape to a spherical shape”. Further, in data set [3] (donor hepatocytes cultured in the presence of FINO2 (50 μM)), the lipid peroxidation entry is listed as “increased lipid peroxidation”.

Turning to `N[C@@H](CCC(=O)N[C@@H](CS)C(=O)NCC(=O)O)C(=O)O` [GSH, reduced L-glutathione], in data set [1] (10 μM reduced L-glutathione, 48 hours, collagen-coated plates, p=0.002), the survival result is reported as “improves cell survival; also recorded: increased survival”. Further, the lipid peroxidation entry in data set [3] (10 μM reduced L-glutathione, 48 hours, collagen-coated plates) was “reduces lipid peroxidation; also recorded: decreased lipid peroxidation”.
